From the supplement of paper PMC10307832

Compound: CCN1CCN(c2ccc(Nc3cc(N(C)C(=O)Nc4c(Cl)c(OC)cc(OC)c4Cl)ncn3)cc2)CC1 [BGJ398] + Cc1nc(NC(=O)N2CCC[C@H]2C(N)=O)sc1-c1ccnc(C(C)(C)C(F)(F)F)c1 [Alpelisib] (partner 2 µM)
Test: relative viability (nuclei count vs DMSO), 5 days (fraction); higher = more cells survive
Conditions: first compound 0.01 µM
Procedure, shortened: (§1)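 Lung cancer cell lines, seeded in 1536-well plates, were treated the following day by pin tool with a single drug or with five library-drug doses (not always all listed) in √10 steps on top of a fixed anchor-drug dose. Cells were fixed and nuclei stained in one step after 5 days, and nuclei were counted. Relative viability is the nuclei count for treated wells divided by that for vehicle wells, reported as medians of duplicate plates.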

Row | Cell Line | relative viability
1 | NCI-H2405 | 0.723
2 | HOP-62 | 0.721
3 | LU99A | 0.532
4 | BEN | 0.896
5 | HARA | 0.784
6 | HCC-78 | 0.274
7 | NCI-H322M | 0.772
8 | LCLC-97TM1 | 0.233
9 | A-427 | 1.08
10 | NCI-H441 | 0.775
11 | NCI-H1734 | 0.678
12 | NCI-H460 | 0.47
13 | NCI-H2347 | 1.01
14 | NCI-H1395 | 0.982
15 | 201T | 1.08
16 | NCI-H1915 | 0.981

Row | Cell Line | relative viability
17 | HCC-827 | 0.821
18 | LXF-289 | 0.983
19 | NCI-H23 | 0.746
20 | NCI-H647 | 1.05
21 | CAL-12T | 1.11
22 | NCI-H1651 | 1.04
23 | EPLC-272H | 0.895
24 | NCI-H1355 | 0.71
25 | NCI-H3122 | 0.835
26 | NCI-H1437 | 0.96
27 | NCI-H1755 | 0.861
28 | HCC-15 | 0.88
29 | NCI-H1793 | 0.676
30 | PC-14 | 0.824
31 | EKVX | 0.798
32 | LC-2-ad | 0.926

Same assay, conditions: first compound 0.03162 µM

Row | Cell Line | relative viability
33 | NCI-H2405 | 0.932
34 | HOP-62 | 1.02
35 | LU99A | 0.49
36 | BEN | 1.2
37 | HARA | 0.635
38 | HCC-78 | 0.311
39 | NCI-H322M | 0.741
40 | LCLC-97TM1 | 0.269
41 | A-427 | 1.07
42 | NCI-H441 | 0.707
43 | NCI-H1734 | 0.654
44 | NCI-H460 | 0.594
45 | NCI-H2347 | 1.04
46 | NCI-H1395 | 1.02
47 | 201T | 1.01
48 | NCI-H1915 | 1.05
49 | LXF-289 | 1.03
50 | NCI-H23 | 0.652
51 | NCI-H647 | 1.19
52 | CAL-12T | 1.37
53 | NCI-H1651 | 0.952
54 | EPLC-272H | 0.812
55 | NCI-H1355 | 0.828
56 | NCI-H3122 | 0.844
57 | NCI-H1437 | 0.989
58 | NCI-H1755 | 0.965
59 | HCC-15 | 0.909
60 | PC-14 | 0.845
61 | EKVX | 0.665
62 | LC-2-ad | 0.871

Same assay, conditions: first compound 0.1 µM

Row | Cell Line | relative viability
63 | NCI-H2405 | 0.831
64 | HOP-62 | 0.824
65 | LU99A | 0.534
66 | BEN | 0.993
67 | HARA | 0.752
68 | HCC-78 | 0.378
69 | NCI-H322M | 0.851
70 | LCLC-97TM1 | 0.231
71 | A-427 | 0.944
72 | NCI-H441 | 0.644
73 | NCI-H1734 | 0.725
74 | NCI-H460 | 0.574
75 | NCI-H2347 | 1.01
76 | NCI-H1395 | 0.994
77 | 201T | 0.893
78 | NCI-H1915 | 1.1

Row | Cell Line | relative viability
79 | HCC-827 | 1.1
80 | LXF-289 | 1.02
81 | NCI-H23 | 0.666
82 | NCI-H647 | 1.06
83 | CAL-12T | 1.25
84 | NCI-H1651 | 0.961
85 | EPLC-272H | 0.846
86 | NCI-H1355 | 0.9
87 | NCI-H3122 | 0.763
88 | NCI-H1437 | 0.955
89 | NCI-H1755 | 1.05
90 | HCC-15 | 0.976
91 | NCI-H1793 | 0.955
92 | PC-14 | 0.98
93 | EKVX | 0.95
94 | LC-2-ad | 0.924

Same assay, conditions: first compound 0.3162 µM

Row | Cell Line | relative viability
95 | NCI-H2405 | 0.79
96 | HOP-62 | 0.861
97 | LU99A | 0.487
98 | BEN | 0.923
99 | HARA | 0.817
100 | HCC-78 | 0.366
101 | NCI-H322M | 0.761
102 | LCLC-97TM1 | 0.214
103 | A-427 | 0.848
104 | NCI-H441 | 0.73
105 | NCI-H1734 | 0.676
106 | NCI-H460 | 0.566
107 | NCI-H2347 | 1.13
108 | NCI-H1395 | 0.719
109 | 201T | 0.964
110 | NCI-H1915 | 1.08

Row | Cell Line | relative viability
111 | HCC-827 | 0.962
112 | LXF-289 | 0.957
113 | NCI-H23 | 0.625
114 | NCI-H647 | 1.26
115 | CAL-12T | 1.36
116 | NCI-H1651 | 0.918
117 | EPLC-272H | 0.752
118 | NCI-H1355 | 0.837
119 | NCI-H3122 | 0.717
120 | NCI-H1437 | 0.991
121 | NCI-H1755 | 0.908
122 | HCC-15 | 0.91
123 | NCI-H1793 | 0.696
124 | PC-14 | 0.958
125 | EKVX | 0.842
126 | LC-2-ad | 0.968

Same assay, conditions: first compound 1 µM

Row | Cell Line | relative viability
127 | NCI-H2405 | 0.875
128 | HOP-62 | 0.984
129 | LU99A | 0.411
130 | BEN | 0.759
131 | HARA | 0.787
132 | HCC-78 | 0.338
133 | NCI-H322M | 0.813
134 | LCLC-97TM1 | 0.265
135 | A-427 | 0.662
136 | NCI-H441 | 0.593
137 | NCI-H1734 | 0.742
138 | NCI-H460 | 0.422
139 | NCI-H2347 | 1.08
140 | NCI-H1395 | 0.604
141 | 201T | 0.994
142 | NCI-H1915 | 1.05

Row | Cell Line | relative viability
143 | HCC-827 | 1.05
144 | LXF-289 | 0.947
145 | NCI-H23 | 0.574
146 | NCI-H647 | 1.15
147 | CAL-12T | 1.47
148 | NCI-H1651 | 0.939
149 | EPLC-272H | 0.952
150 | NCI-H1355 | 0.823
151 | NCI-H3122 | 0.832
152 | NCI-H1437 | 0.972
153 | NCI-H1755 | 0.889
154 | HCC-15 | 1.02
155 | NCI-H1793 | 0.549
156 | PC-14 | 0.938
157 | EKVX | 0.977
158 | LC-2-ad | 0.915

Compound: C1=CC2=NC=CN=C2C=C1/C=C/3\C(=O)NC(=O)S3 + Cc1cc(Nc2cc(N3CCN(C)CC3)nc(Sc3ccc(NC(=O)C4CC4)cc3)n2)n[nH]1 [Tozasertib] (partner 0.1 µM)
Test: as above
Conditions: first compound 0.02 µM
Procedure, shortened: as §1

Row | Cell Line | relative viability
159 | NCI-H2405 | 0.764
